Patent US20230210819A1, “USE OF BENZISOSELAZOLE DERIVATIVE FOR ANTI-CORONAVIRUS AND CONTROL OF INTERSTITIAL LUNG DISEASE (ILD) RELATED TO CORONAVIRUS” (SHANGHAI YUANXI MEDICINE CORP., priority 2020, published 2023)

What was measured:
Type in all cases: in vivo, C57 mice
Details in all cases: Dex 1-1.5 mg/kg i.p. every two days
[1] = Body weight, bleomycin-induced mice, 24-h modeling
Method: Animals of 24-h modeling were randomly divided into 5 groups according to the table below, 3 animals per control group and 5 animals per test group.
(§1) Drug administration began 24 h or 7 d after modeling. […] The day of the first administration was counted as D1, the next day as D2, and so forth. The normal groups and Model groups were given 200 µL of normal saline daily by gavage administration.
All the animals were observed once daily during the experiment for death or dying, feces, ingestion, mental state and behavior and activity. Abnormalities were recorded in time. All the animals were weighed once before grouping and once before each dose.
In this experiment, 105 C57 mice were randomly selected and subjected to organ drip administration of a single dose of bleomycin at 2.5 mg/kg for 24 h or 7 d for induction. After 7 days of induction, 3 model mice were randomly selected and dissected to determine whether the modeling was successful. After modeling, the survival of the mice was recorded. The living states of the mice were observed and their body weight was measured at a fixed time.
A normal control group comprised 3 mice.

[2] = system: inflammatory cells in bronchoalveolar lavage fluid; test: Inflammatory cell assay of bronchoalveolar lavage fluid, 7-d modeling
Method: (§2) Animals of 7-d modeling were randomly divided into 7 groups according to the table below, 6 animals per control group and 12 animals per test group.
as §1
(§3) After the mouse was fixed, its trachea and chest cavity were exposed, and the trachea and the esophagus were bluntly separated with an ophthalmic curved forceps. Two sutures were made between the trachea and the esophagus. An intravenous trocar was inserted into the trachea and ligated at the site where it entered the trachea and at its distal end. A 1 mL syringe was connected to draw in 1 mL of pre-cooled PBS and infuse it into the lung tissue. Significant filling in the lung could be seen with the naked eye. The syringe was held for 10 s and withdrawal was performed. The infusion/withdrawal cycle was repeated 3 times. The withdrawn BALF was transferred to a clean EP tube and centrifuged at 4° C., and the supernatant was collected and preserved at -80° C. The cells were subjected to routine tests.
Upon the end of the administration, the leukocytes (lymphocytes, neutrophils and monocytes) in the bronchoalveolar lavage fluids of the mice in the 7-d modeling groups were classified and counted.

[3] = system: cytokines in bronchoalveolar lavage fluid; test: Inflammatory factor assay of bronchoalveolar lavage fluid by ELISA
Method: as §2, §1
as §3, with “The infusion” for “The syringe”, “was stopped” for “was held”, “The bronchoalveolar lavage fluid was assayed for inflammatory factors by ELISA.” for “The cells were subjected to routine tests.”

[4] = second half of table, head taken from the 24th table

C[C@@H]1C[C@H]2[C@@H]3CCC4=CC(=O)C=C[C@]4(C)[C@@]3(F)[C@@H](O)C[C@]2(C)[C@@]1(O)C(=O)CO [Dex, dexamethasone, reference compound]
Body weight ([1]; D1): 19.92 ± 1.38 g
Body weight ([1]; D7): 20.02 ± 0.96 g
Body weight ([1]; D14): 19.24 ± 0.95 g
Body weight ([1]; D21): 18.90 ± 0.78 g
Body weight ([1]; D28): 18.56 ± 0.71 g
Body weight ([1]; D35): 18.36 ± 0.66 g
Body weight decreased by ([1]; day 1 to day 35): 8.48%
Absolute leukocyte count in bronchoalveolar lavage fluid [2]: 0.57±0.02 10^9/L
Absolute lymphocyte count in bronchoalveolar lavage fluid [2]: 0.46±0.03 10^9/L
Absolute monocyte count in bronchoalveolar lavage fluid [2]: 0.03±0.01 10^9/L
Absolute neutrophil count in bronchoalveolar lavage fluid [2]: 0.0±0.01 10^9/L
Percent reduction in leukocytes in bronchoalveolar lavage fluid with respect to the Model group [2]: 45.32%
Percent reduction in lymphocytes in bronchoalveolar lavage fluid with respect to the Model group [2]: 47.51%
Percent reduction in monocytes in bronchoalveolar lavage fluid with respect to the Model group [2]: 46.43%
Percent reduction in neutrophils in bronchoalveolar lavage fluid with respect to the Model group [2]: 68.52%
IFN-γ in bronchoalveolar lavage fluid [3]: 66.48 ± 4.88 pg/mL
NF-κB in bronchoalveolar lavage fluid [3]: 818.72 ± 119.21 pg/mL
PPAR-γ in bronchoalveolar lavage fluid [3]: 232.49 ± 39.00 pg/mL
Percent reduction in IL-1β in bronchoalveolar lavage fluid with respect to the Model group [3]: 23.21%
Percent reduction in IL-2 in bronchoalveolar lavage fluid with respect to the Model group [3]: 7.98%
Percent reduction in IL-6 in bronchoalveolar lavage fluid with respect to the Model group [3]: 55.36%
Percent reduction in NF-κB in bronchoalveolar lavage fluid with respect to the Model group [3]: 10.75%
Percent reduction in TGF-β in bronchoalveolar lavage fluid with respect to the Model group [3]: 15.87%
Percent reduction in TNF-α in bronchoalveolar lavage fluid with respect to the Model group [3]: 5.19%
TGF-β in bronchoalveolar lavage fluid [3]: 159.28 ± 11.09 pg/mL
Percent reduction in IFN-γ in bronchoalveolar lavage fluid with respect to the Model group ([3]; negative = increase): -100.30%
Percent reduction in PPAR-y in bronchoalveolar lavage fluid with respect to the Model group ([3]; negative = increase): -7.09%
IL-1β in bronchoalveolar lavage fluid [3, 4]: 9.59 ± 0.90 pg/mL
IL-2 in bronchoalveolar lavage fluid [3, 4]: 41.67 ± 4.69 pg/mL
IL-6 in bronchoalveolar lavage fluid [3, 4]: 12.84 ± 1.02 pg/mL
TNF-α in bronchoalveolar lavage fluid [3, 4]: 53.21 ± 0.90 pg/mL
